Assay results as given in patent US20210379066A1, “COMBINATIONS OF POSITIVE ALLOSTERIC MODULATORS AND NICOTINIC ACETYLCHOLINE RECEPTOR AGONISTS FOR TREATING OCULAR CONDITIONS” (Oyster Point Pharma, Inc., priority 2018, published 2021).
Values joined by “and” are separate entries in the source; they are usually repeats but may differ in a detail not shown here. Equal entries are not always repeated. Where two headings read alike, the source gives them in different places.

Key:
[1] = Measured plasma Cmax after nasal spray (Example 4); format: in vivo; conditions: human, inhaled or intranasal; blood plasma of 30 individuals; nasal spray of 1.1% compound 1 free base (2.0% hemi-galactarate dihydrate), 200 microliters total, about 2216 micrograms free base
Procedure: A dose of a nAChR agonist, or a pharmaceutically acceptable salt thereof, is administered to an individual. Examples of dose and volume ranges are described herein.
A blood sample is collected from an individual before administration of a nAChR agonist, or a pharmaceutically acceptable salt thereof. After administration of the nAChR agonist, or a pharmaceutically acceptable salt thereof, to the individual, multiple blood samples are collected over a period of time at certain intervals. For instance, blood samples are collected at 10 minutes, 20 minutes, 30 minutes, 1 hour, 2 hours, 3 hours, and 4 hours after administration of the nAChR agonist, or a pharmaceutically acceptable salt thereof.
Blood samples (4 mL in K2EDTA tubes) are collected from an arm vein into Vacutainer tubes containing K2EDTA. […]
All pharmacokinetic (PK) analyses and reporting are performed according to generally accepted standard operating procedures and protocol specifications. Pharmacokinetic parameters are calculated by use of generally accepted software tools, for instance Phoenix® WinNonlin® 8.0.
A plasma concentration time plot is created by plotting the concentration of the nAChR agonist, or pharmaceutically acceptable salt thereof, as a function of time. Cmax is calculated by inspection of an individual's plasma concentration time plot. […] The Cmax is calculated for an individual after a treatment. […]

[2] = Pharmacokinetics in human subjects after 28 days of intranasal administration (Example 7); format: in vivo
Procedure: Blood plasma for the patients was collected on Day 29 predose (time 0) and after a series of time points (10 min, 20 min, 30 min, 1 hr, 2 hrs, 4 hrs, 5 hrs, 6 hrs, 7 hrs, 8 hrs, and 24 hrs) after a single administration of drug. The blood plasma was analyzed for Compound 1.
The following pharmacokinetic parameters for Compound 1 were calculated: • Cmax: Maximum observed concentration, observed by inspection of individual study participant plasma concentration time plots. • Tmax: Time of maximum observed concentration, obtained directly from the observed concentration time data. • AUClast: The area under the plasma concentration time curve, from time 0 to the last measurable non-zero concentration, calculated by a combination of linear and logarithmic trapezoidal methods (Linear up/log down method). • AUC0-4h: The area under the plasma concentration time curve, from time 0 to the 4 h time point, calculated by a combination of linear and logarithmic trapezoidal methods (Linear up/log down method). • AUCinf: The area from zero time (pre-dose) extrapolated to infinite time (AUCinf) will be calculated as follows: AUCinf=AUClast+Cz/λz. • AUC % Extrap: The percentage of AUCinf obtained by extrapolation (AUC % Extrap) will be calculated as follows:
[formula] • Half-life: Terminal elimination half-life.

[3] = target: nAChR subtype alpha3beta2 (Homo sapiens, UniProt P17787+P32297); assay: Agonist characterisation versus ACh response (description); format: cell-based
From the text: nAChR agonist response, from which receptor activation can be determined can, for example, be generated using an appropriate cell-based assay. Cells designed to express a particular nAChR receptor subtype and generate an electrical current response when bound to and activated by a nAChR agonist can be used to characterize the agonist profile of a compound and the amount of receptor activation thus determined. An example of a generic protocol is described below.
Cells that express a particular human nAChR subtype are first exposed to ACh. ACh binds and activates the receptor, thereby evoking a current. The concentration of the ACh is chosen to elicit the maximum response of the receptor (e.g., 1280 micromolar ACh). This current is recorded as the ACh response and serves as the 100% nAChR agonist response and to which responses to other nAChR agonists are compared. After washing, the cells are exposed to a nAChR agonist at various concentrations (e.g., 0.1, 0.3, 1, 3, 10, 30, 100, and 300 micromolar). The current evoked by exposure to the nAChR agonist is measured and recorded for each nAChR concentration. This nAChR agonist response data is then normalized to unity versus the maximal ACh evoked current and plotted as a function of the logarithm of the nAChR agonist concentration. The nAChR agonist response is then calculated as a percentage of the ACh response.

[4] = Max, N=7, Day 29 dose after 28 days BID
[5] = Min, N=7, Day 29 dose after 28 days BID
[6] = human, plasma, other: intranasal spray, […] Compound 1, 50 μL spray in each nostril, Max, N=7, Day 29 dose after 28 days BID
[7] = human, plasma, other: intranasal spray, […] Compound 1, 50 μL spray in each nostril, Mean, N=7, Day 29 dose after 28 days BID
[8] = human, plasma, other: intranasal spray, […] Compound 1, 50 μL spray in each nostril, Median, N=7, Day 29 dose after 28 days BID

nAChR subtype alpha3beta2, sequence (P32297 32-505): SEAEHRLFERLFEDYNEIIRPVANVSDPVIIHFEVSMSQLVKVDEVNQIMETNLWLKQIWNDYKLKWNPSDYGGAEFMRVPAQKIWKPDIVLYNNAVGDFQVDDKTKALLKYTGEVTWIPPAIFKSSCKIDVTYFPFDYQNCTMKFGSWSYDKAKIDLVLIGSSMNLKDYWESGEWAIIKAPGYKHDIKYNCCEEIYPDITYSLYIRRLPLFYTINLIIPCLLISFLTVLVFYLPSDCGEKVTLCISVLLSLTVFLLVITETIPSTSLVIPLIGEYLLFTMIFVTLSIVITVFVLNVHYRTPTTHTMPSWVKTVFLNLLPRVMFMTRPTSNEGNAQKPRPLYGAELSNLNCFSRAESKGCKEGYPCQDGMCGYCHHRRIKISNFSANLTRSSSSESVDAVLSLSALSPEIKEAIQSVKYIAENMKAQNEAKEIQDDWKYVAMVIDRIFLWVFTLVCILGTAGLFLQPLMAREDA
nAChR subtype alpha3beta2, sequence (P17787 26-502): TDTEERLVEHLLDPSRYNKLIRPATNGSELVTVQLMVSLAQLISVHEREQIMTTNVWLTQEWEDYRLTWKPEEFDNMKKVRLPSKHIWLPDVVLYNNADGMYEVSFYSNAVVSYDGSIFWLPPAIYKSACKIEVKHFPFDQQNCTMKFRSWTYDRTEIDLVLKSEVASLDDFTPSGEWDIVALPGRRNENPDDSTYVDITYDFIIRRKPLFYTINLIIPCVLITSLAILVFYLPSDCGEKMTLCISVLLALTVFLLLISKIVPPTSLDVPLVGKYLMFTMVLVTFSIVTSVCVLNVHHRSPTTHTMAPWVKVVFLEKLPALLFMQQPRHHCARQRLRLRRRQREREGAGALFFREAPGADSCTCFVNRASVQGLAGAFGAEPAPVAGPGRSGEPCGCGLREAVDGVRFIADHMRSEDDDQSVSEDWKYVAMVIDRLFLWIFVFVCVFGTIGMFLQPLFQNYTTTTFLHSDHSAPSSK

C(=C\[C@H]1CCNC1)/c1cncnc1 [Compound 1, (R)-5-((E)-2-pyrrolidin-3-ylvinyl)pyrimidine]
Cmax [1]: 2.92 ng/mL | AUC % Extrap [2, 4]: 41.1% | Tmax [2, 4]: 1.2 h | AUC % Extrap ([2]; Mean, N=7, Day 29 dose after 28 days BID): 21.3% | AUC % Extrap ([2]; Median, N=7, Day 29 dose after 28 days BID): 23.3% | AUC % Extrap [2, 5]: 3.69% and 3.67% | AUCinf [2, 5]: 1.21 ng·h/mL | AUClast [2, 5]: 0.801 ng·h/mL | Cmax [2, 5]: 0.621 ng/mL | Tmax [2, 5]: 0.17 h | half-life [2, 5]: 0.852 h | half-life ([2]; human, plasma, inhaled or intranasal, […] Compound 1, 50 μL spray in each nostril, Mean, N=7, Day 29 single intranasal dose of […] Compound 1 (2.0% hemigalactarate salt) after 28 days BID, 50 μL per nostril, read-out: Half-life (converted)): 1.58 ± 0.818 h | Cmax ([2]; human, plasma, other: intranasal spray, […] Compound 1, 50 μL spray in each nostril, Max (individual subject maximum), N=7, Day 29 dose after 28 days BID, read-out: Cmax): 5.49 ng/mL | AUC(0-inf) [2, 6]: 12.5 ng·h/mL | AUC(0-t) [2, 6]: 12.1 ng·h/mL | half-life ([2]; human, plasma, other: intranasal spray, […] Compound 1, 50 μL spray in each nostril, Max, N=7, Day 29 dose after 28 days BID, read-out: Half-life (converted)): 2.83 h | AUC(0-inf) [2, 7]: 6.22 ± 4.63 ng·h/mL | AUC(0-t) [2, 7]: 5.22 ± 4.52 ng·h/mL | Cmax ([2]; human, plasma, other: intranasal spray, […] Compound 1, 50 μL spray in each nostril, Mean, N=7, Day 29 dose after 28 days BID, read-out: Cmax): 2.26 ± 1.96 ng/mL | Tmax ([2]; human, plasma, other: intranasal spray, […] Compound 1, 50 μL spray in each nostril, Mean, N=7, Day 29 dose after 28 days BID, read-out: Tmax): 0.7 h | AUC(0-inf) [2, 8]: 5.67 ng·h/mL | AUC(0-t) [2, 8]: 4.35 ng·h/mL | Cmax ([2]; human, plasma, other: intranasal spray, […] Compound 1, 50 μL spray in each nostril, Median, N=7, Day 29 dose after 28 days BID, read-out: Cmax): 1.35 ng/mL | half-life ([2]; human, plasma, other: intranasal spray, […] Compound 1, 50 μL spray in each nostril, Median, N=7, Day 29 dose after 28 days BID, read-out: Half-life (converted)): 1.12 h | Tmax ([2]; human, plasma, other: intranasal spray, […] Compound 1, 50 μL spray in each nostril, Median, N=7, Day 29 dose after 28 days BID, read-out: Tmax): 0.5 h | C0 ([2]; human, plasma, other: intranasal spray, […] Compound 1, 50 μL spray in each nostril, Day 29 predose after 28 days BID, detected in 4 out of 7 subjects, read-out: mean plasma concentration at time zero (predose)): 0.264 ng/mL | concentration at 1 h ([2]; human, plasma, other: intranasal spray, […] Compound 1, 50 μL spray in each nostril, at 1 h after intranasal administration on Day 29, read-out: peak of mean plasma exposure): 2.07 ng/mL | concentration at 24 h ([2]; human, plasma, other: intranasal spray, […] Compound 1, 50 μL spray in each nostril, no subject above lower limit of quantification, read-out: plasma concentration at 24 h post administration): < 0.2 ng/mL | fraction cleared from systemic circulation before the next administration ([2]; if administered every 12 hours (4 half-lives), from maximum individual half-life): > 94% | agonist character [3]: partial agonist
